From US10821115B2, “Compounds that inhibit Mcl-1 protein” (priority 2017, dated 2020)
Where two headings read alike, the source gives them in different places.

What was measured:
[1] = target: recombinant human Mcl-1 (residues 171-327) / Bim interaction (Homo sapiens (Human), UniProt Q07820); experiment: biochemical; assay type: binding; settings: read-out: Mcl-1 HTRF IC50
[2] = tested on: human multiple myeloma cell line, OPM-2; experiment: Cell viability assay (OPM-2 10 FBS), CellTiter-Glo; assay type: cell-based
Outline: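 Steps: plate cells at 3000/well in 10% FBS growth medium, add serially diluted compound, incubate 16 h at 37 °C with 5% CO2, add detection reagent and read luminescence after 25 min. A 4-parameter logistic model gives IC50.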

[3] = TR-FRET, Mcl-1(171-327) / biotin-Bim (51-76)
[4] = Homo sapiens, OPM-2, 16 h, read-out: OPM-2 10% FBS IC50 IP, OPM-2 cells, 10% FBS, 16 h, CellTiter-Glo
[5] = 0.1 nM Mcl-1(171-327), 0.05 nM biotin-Bim (51-76)
[6] = Homo sapiens, OPM-2, 16 h, read-out: OPM-2 10% FBS IC50 IP, OPM-2 cells, 10% FBS, 16 h incubation
[7] = read-out: OPM-2 10% FBS IC50 IP, OPM-2 cells, 10% FBS, 16 h, CellTiter-Glo

Chain of recombinant human Mcl-1 (residues 171-327) / Bim interaction (Q07820 171-327): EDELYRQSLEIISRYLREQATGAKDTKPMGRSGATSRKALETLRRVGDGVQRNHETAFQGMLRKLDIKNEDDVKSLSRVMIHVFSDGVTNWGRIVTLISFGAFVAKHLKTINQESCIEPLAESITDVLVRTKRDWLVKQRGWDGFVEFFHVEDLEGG

C[C@@H]1[C@@H](C)CCC[C@@](O)(CC(=O)N2CCN(C)CC2)[C@@H]2CC[C@H]2CN2C[C@@]3(CCCc4cc(Cl)ccc43)COc3ccc(cc32)C(=O)NS1(=O)=O [Example 100167, (1S,3′R,6′R,7′R,11′S,12′R)-6-chloro-7′-hydroxy-11′,12′-dimethyl-7′-(2-(4-methyl-1-piperazinyl)-2-oxoethyl)-3,4-dihydro-2H,15′H-spiro[naphthalene-1,22′-[20]oxa[13]thia[1,14]diazatetracyclo [14.7.2.0~3,6~.0~19,24~]pentacosa[16,18,24]trien]-15′-one 13′,13′-dioxide]
IC50 [1, 3]: 0.377 nM
IC50 [2, 4]: 339 nM

C[C@@H]1[C@@H](C)CCC[C@@](O)([C@@H]2OCCN(C)C2=O)[C@@H]2CC[C@H]2CN2C[C@@]3(CCCc4cc(Cl)ccc43)COc3ccc(cc32)C(=O)NS1(=O)=O [Example 100205, (1S,3′R,6′R,7′S,11′S,12′R)-6-chloro-7′-hydroxy-11′,12′-dimethyl-7′-((2S)-4-methyl-3-oxo-2-morpholinyl)-3,4-dihydro-2H,15′H-spiro[naphthalene-1,22′-[20]oxa[13]thia[1,14]diazatetracyclo [14.7.2.0~3,6~.0~19,24~]pentacosa[16,18,24]trien]-15′-one 13′,13′-dioxide]
IC50 [1, 3]: 0.206 nM
IC50 [2, 4]: 68 nM

C[C@@H]1[C@@H](C)C/C=C/[C@](O)(c2nccn2C)[C@@H]2CC[C@H]2CN2C[C@@]3(CCCc4cc(Cl)ccc43)COc3ccc(cc32)C(=O)NS1(=O)=O [Example 100186, (1S,3′R,6′R,7′R,8′E,11′S,12′R)-6-chloro-7′-hydroxy-11′,12′-dimethyl-7′-(1-methyl-1H-imidazol-2-yl)-3,4-dihydro-2H,15′H-spiro[naphthalene-1,22′-[20]oxa[13]thia[1,14]diazatetracyclo [14.7.2.0~3,6~.0~19,24~]pentacosa[8,16,18,24]tetraen]-15′-one 13′,13′-dioxide]
IC50 [1, 3]: 0.377 nM
IC50 [2, 4]: 312 nM

CCO[C@@]1(CN2CCN(C(COC)COC)CC2)/C=C/C[C@H](C)[C@@H](C)S(=O)(=O)NC(=O)c2ccc3c(c2)N(C[C@@H]2CC[C@H]21)C[C@@]1(CCCc2cc(Cl)ccc21)CO3 [Example 111, (1S,3′R,6′R,7′S,8′E,11′S,12′R)-6-chloro-7′-ethoxy-7′-((4-(2-methoxy-1-(methoxymethyl)ethyl)-1-piperazinyl)methyl)-11′,12′-dimethyl-3,4-dihydro-2H,15′H-spiro[naphthalene-1,22′-[20]oxa[13]thia[1,14]diazatetracyclo [14.7.2.0~3,6~.0~19,24~]pentacosa[8,16,18,24]tetraen]-15′-one 13′,13′-dioxide]
IC50 [1, 5]: 0.362 nM
IC50 [2, 6]: 301 nM

CO[C@]1(Cc2noc(C)c2C)/C=C/C[C@H](C)[C@@H](C)S(=O)(=O)NC(=O)c2ccc3c(c2)N(C[C@@H]2CC[C@H]21)C[C@@]1(CCCc2cc(Cl)ccc21)CO3 [Example 100574, (1S,3′R,6′R,7′R,8′E,11′S,12′R)-6-chloro-7′-((4,5-dimethyl-1,2-oxazol-3-yl)methyl)-7′-methoxy-11′,12′-dimethyl-3,4-dihydro-2H,15′H-spiro[naphthalene-1,22′-[20]oxa[13]thia[1,14]diazatetracyclo [14.7.2.0~3,6~.0~19,24~]pentacosa[8,16,18,24]tetraen]-15′-one 13′,13′-dioxide]
IC50 [1, 3]: 1.42 nM
IC50 [2, 4]: 4320 nM

COCCN(CCOC)C1CN(C[C@]2(OC)/C=C/C[C@H](C)[C@@H](C)S(=O)(=O)NC(=O)c3ccc4c(c3)N(C[C@@H]3CC[C@H]32)C[C@@]2(CCCc3cc(Cl)ccc32)CO4)C1 [Example 344, (1S,3′R,6′R,7′S,8′E,11′S,12′R)-7′-((3-(bis(2-methoxyethyl)amino)-1-azetidinyl)methyl)-6-chloro-7′-methoxy-11′,12′-dimethyl-3,4-dihydro-2H,15′H-spiro[naphthalene-1,22′-[20]oxa[13]thia[1,14]diazatetracyclo [14.7.2.0~3,6~.0~19,24~]pentacosa[8,16,18,24]tetraen]-15′-one 13′,13′-dioxide]
IC50 [1, 5]: 0.116 nM
IC50 [2, 6]: 57 nM

CO[C@@]1(CN2CCN(c3cccnc3)CC2)/C=C/C[C@H](C)[C@@H](C)S(=O)(=O)NC(=O)c2ccc3c(c2)N(C[C@@H]2CC[C@H]21)C[C@@]1(CCCc2cc(Cl)ccc21)CO3 [Example 253, (1S,3′R,6′R,7′S,8′E,11′S,12′R)-6-chloro-7′-methoxy-11′,12′-dimethyl-7′-((4-(3-pyridinyl)-1-piperazinyl)methyl)-3,4-dihydro-2H,15′H-spiro[naphthalene-1,22′-[20]oxa[13]thia[1,14]diazatetracyclo [14.7.2.0~3,6~.0~19,24~]pentacosa[8,16,18,24]tetraen]-15′-one 13′,13′-dioxide]
IC50 [1, 5]: 0.804 nM
IC50 [2, 6]: 887 nM

CCCO[C@]1(CN2CCN3CCCC[C@@H]3C2)/C=C/C[C@H](C)[C@@H](C)S(=O)(=O)NC(=O)c2ccc3c(c2)N(C[C@@H]2CC[C@H]21)C[C@@]1(CCCc2cc(Cl)ccc21)CO3 [Example 353, (1S,3′R,6′R,7′R,8′E,11′S,12′R)-6-chloro-11′,12′-dimethyl-7′-((9aR)-octahydro-2H-pyrido[1,2-a]pyrazin-2-ylmethyl)-7′-propoxy-3,4-dihydro-2H,15′H-spiro[naphthalene-1,22′-[20]oxa[13]thia[1,14]diazatetracyclo [14.7.2.0~3,6~.0~19,24~]pentacosa[8,16,18,24]tetraen]-15′-one 13′,13′-dioxide]
IC50 [1, 5]: 0.135 nM
IC50 ([2]; read-out: OPM-2 10% FBS IC50 IP, OPM-2 cells, 10% FBS, 16 h incubation): 186 nM

C=CC[C@@]1(O)/C=C/C[C@H](C)[C@@H](C)S(=O)(=O)NC(=O)c2ccc3c(c2)N(C[C@@H]2CC[C@H]21)C[C@@]1(CCCc2cc(Cl)ccc21)CO3 (single isomer, unassigned) [Example 100131]
IC50 [1, 3]: 0.163 nM
IC50 [2, 4]: 144 nM

C[C@@H]1[C@@H](C)C/C=C/[C@@](O)(C[S@@+](C)[O-])[C@@H]2CC[C@H]2CN2C[C@@]3(CCCc4cc(Cl)ccc43)COc3ccc(cc32)C(=O)NS1(=O)=O (stereo in doubt) [Example 100075]
IC50 [1, 3]: 0.671 nM
IC50 [2, 7]: 1820 nM

COCC[C@]1(OC)/C=C/C[C@H](C)[C@@H](C)S(=O)(=O)NC(=O)c2ccc3c(c2)N(C[C@@H]2CC[C@H]21)C[C@@]1(CCCc2cc(Cl)ccc21)CO3 [Example 100369, (1S,3′R,6′R,7′S,8′E,11′S,12′R)-6-chloro-7′-methoxy-7′-(2-methoxyethyl)-11′,12′-dimethyl-3,4-dihydro-2H,15′H-spiro[naphthalene-1,22′-[20]oxa[13]thia[1,14]diazatetracyclo [14.7.2.0~3,6~.0~19,24~]pentacosa[8,16,18,24]tetraen]-15′-one 13′,13′-dioxide]
IC50 [1, 3]: 2.83 nM
IC50 [2, 4]: 9920 nM

C[C@@H]1[C@@H](C)CCCC2(OCCO2)[C@@H]2CC[C@H]2CN2C[C@@]3(CCCc4cc(Cl)ccc43)COc3ccc(cc32)C(=O)NS1(=O)=O [Example 100102, (3′R,6′R,11′S,12′R,22′S)-6″-chloro-11′,12′-dimethyl-3″,4″-dihydro-2″H,15′H-dispiro[1,3-dioxolane-2,7′-[20]oxa[13]thia[1,14]diazatetracyclo [14.7.2.0~3,6~.0~19,24~]pentacosa[16,18,24]triene-22′,1″-naphthalen]-15′-one 13′,13′-dioxide]
IC50 [1, 3]: 0.99 nM
IC50 [2, 4]: 1430 nM

COCC[C@@H]1[C@@H](C)C/C=C/[C@@](CN2CCN(C3COC3)CC2)(OC)[C@@H]2CC[C@H]2CN2C[C@@]3(CCCc4cc(Cl)ccc43)COc3ccc(cc32)C(=O)NS1(=O)=O [Example 187, (1S,3′R,6′R,7′R,8′E,11′S,12′R)-6-chloro-7′-methoxy-12′-(2-methoxyethyl)-11′-methyl-7′-((4-(3-oxetanyl)-1-piperazinyl)methyl)-3,4-dihydro-2H,15′H-spiro[naphthalene-1,22′-[20]oxa[13]thia[1,14]diazatetracyclo [14.7.2.0~3,6~.0~19,24~]pentacosa[8,16,18,24]tetraen]-15′-one 13′,13′-dioxide]
IC50 [1, 5]: 0.066 nM
IC50 [2, 6]: 43 nM

C[C@@H]1[C@@H](C)C/C=C/[C@](O)(c2cnc(Cl)n2C)[C@@H]2CC[C@H]2CN2C[C@@]3(CCCc4cc(Cl)ccc43)COc3ccc(cc32)C(=O)NS1(=O)=O (single isomer, unassigned) [Example 100543]
IC50 [1, 3]: 0.451 nM
IC50 [2, 4]: 821 nM

CO[C@]1(C[C@H](O)C(C)C)/C=C/C[C@H](C)[C@@H](C)S(=O)(=O)NC(=O)c2ccc3c(c2)N(C[C@@H]2CC[C@H]21)C[C@@]1(CCCc2cc(Cl)ccc21)CO3 [Example 100359, (1S,3′R,6′R,7′R,8′E,11′S,12′R)-6-chloro-7′-((2S)-2-hydroxy-3-methylbutyl)-7′-methoxy-11′,12′-dimethyl-3,4-dihydro-2H,15′H-spiro[naphthalene-1,22′-[20]oxa[13]thia[1,14]diazatetracyclo [14.7.2.0~3,6~.0~19,24~]pentacosa[8,16,18,24]tetraen]-15′-one 13′,13′-dioxide]
IC50 [1, 3]: 1.2 nM
IC50 [2, 7]: 1540 nM

CO[C@@]1(CN2CCC2)/C=C/C[C@H](C)[C@@H](C)S(=O)(=O)NC(=O)c2ccc3c(c2)N(C[C@@H]2CC[C@H]21)C[C@@]1(CCCc2cc(Cl)ccc21)CO3 [Example 77, (1S,3′R,6′R,7′S,8′E,11′S,12′R)-7′-(1-azetidinylmethyl)-6-chloro-7′-methoxy-11′,12′-dimethyl-3,4-dihydro-2H,15′H-spiro[naphthalene-1,22′-[20]oxa[13]thia[1,14]diazatetracyclo [14.7.2.0~3,6~.0~19,24~]pentacosa[8,16,18,24]tetraen]-15′-one 13′,13′-dioxide]
IC50 [1, 5]: 1.22 nM
IC50 [2, 6]: 415 nM
